The source of these data is patent US20230295096A1, “PYRAZOLE CARBOXAMIDE COMPOUNDS FOR TREATMENT OF HBV” (ASSEMBLY BIOSCIENCES, INC., priority 2020, published 2023).

Structures are written as SMILES. Where two headings read alike, the source gives them in different places.

For the assay, the system named is HBV. Kind of assay: Viral load production from HepAD38 cells, qPCR of the HBV core sequence in supernatant. Format: cell-based. The note with it: HepAD38 cells, 5 days, HBV DNA in supernatant by qPCR, Table 1 ranges, read-out: Activity (viral load lowering EC50). The essentials:
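EC50 and CC50 come from four-parameter logistic fits of supernatant HBV core DNA (TaqMan qPCR, DNA standards, compared with DMSO wells) and of CellTiter-Glo luminescence.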

Where [1] appears, read: Hepatitis B virus, HePAD38, 120 h.

Regarding `Cc1ncc(C2(O)CC3CC(c4nn(C)c(N)c4C(=O)Nc4ccc(F)c(Cl)c4)CC3C2)s1` (stereo not drawn) [Example 161], the EC50 under setting [1] is < 10 nM. Still for that read-out and setting: next, `Cc1ccc(S(=O)(=O)CC2(O)CC3CC(c4nn(C)c(N)c4C(=O)Nc4ccc(F)c(Cl)c4)CC3C2)cn1` (stereo not drawn) [Example 162]: < 10 nM; `Cn1cc(C(F)(F)F)nc1C1(O)CC2CC(c3nn(C)c(N)c3C(=O)Nc3ccc(F)c(Cl)c3)CC2C1` (stereo not drawn) [Example 163]: 10 to 50 nM.

On to `Cn1nc(C2CC3CC(O)(Cc4ccccn4)CC3C2)c(C(=O)Nc2ccc(F)c(Cl)c2)c1N` (stereo not drawn) [Example 164], for which the EC50 under setting [1] was in the range of 10 to 50 nM. On to `Cn1nc(C2CC3CC(O)(c4cc(Br)ncc4F)CC3C2)c(C(=O)Nc2ccc(F)c(Cl)c2)c1N` (stereo not drawn) [Example 166], for which, under setting [1], the EC50 lay in the range of 10 to 50 nM. The same measure, in the same setting: next, `Cn1nc(C2CC3CC(O)(c4ncc(C(F)(F)F)n4C)CC3C2)c(C(=O)Nc2ccc(F)c(Cl)c2)c1N` (stereo not drawn) [Example 167]: 10 to 50 nM; `Cn1nc(C2CC3CC(O)(c4ccc(F)cn4)CC3C2)c(C(=O)Nc2ccc(F)c(Cl)c2)c1N` (stereo not drawn) [Example 168]: < 10 nM.

Consider `Cn1nc(C2CC3CC(O)(c4ccncc4F)CC3C2)c(C(=O)Nc2ccc(F)c(Cl)c2)c1N` (stereo not drawn) [Example 169], for which the EC50 under setting [1] is < 10 nM. The same measure, in the same setting: with `Cn1nc(C2CC3CC(O)(c4c[nH]nn4)CC3C2)c(C(=O)Nc2ccc(F)c(Cl)c2)c1N` (stereo not drawn) [Example 170] the figure was < 10 nM.

For `Cn1nc(C2CC3CC(O)(c4nn[nH]n4)CC3C2)c(C(=O)Nc2ccc(F)c(Cl)c2)c1N` (stereo not drawn) [Example 171], under setting [1], the concentration for a half-maximal effect (EC50) was > 500 nM. Same read-out and setting: with `Cn1nnnc1C1(O)CC2CC(c3nn(C)c(N)c3C(=O)Nc3ccc(F)c(Cl)c3)CC2C1` (stereo not drawn) [Example 172] the figure was 10 to 50 nM. Consider `Cn1nc(C2CC3CC(O)(c4cn[nH]n4)CC3C2)c(C(=O)Nc2ccc(F)c(Cl)c2)c1N` (stereo not drawn) [Example 173], for which the EC50 under setting [1] was in the range of 10 to 50 nM.

`Cn1nc(C2CC3CC(O)(c4c(F)cncc4F)CC3C2)c(C(=O)Nc2ccc(F)c(Cl)c2)c1N` (stereo not drawn) [Example 174]: the concentration for a half-maximal effect (EC50) under setting [1] was < 10 nM. As to `Cn1nc(C2CC3CC(O)(c4ncccn4)CC3C2)c(C(=O)Nc2ccc(F)c(Cl)c2)c1N` (stereo not drawn) [Example 175], the EC50 under setting [1] is < 10 nM. `Cc1nnc(C2(O)CC3CC(c4nn(C)c(N)c4C(=O)Nc4ccc(F)c(Cl)c4)CC3C2)o1` (stereo not drawn) [Example 176]: under setting [1], the 50% effective concentration (EC50) is 10 to 50 nM. Still for that read-out and setting: with `Cc1nc(C2(O)CC3CC(c4nn(C)c(N)c4C(=O)Nc4ccc(F)c(Cl)c4)CC3C2)no1` (stereo not drawn) [Example 177] the figure was < 10 nM; with `Cn1nc(C2CC3CC(O)(c4cc[nH]n4)CC3C2)c(C(=O)Nc2ccc(F)c(Cl)c2)c1N` (stereo not drawn) [Example 178], < 10 nM. With `Cc1noc(C2(O)CC3CC(c4nn(C)c(N)c4C(=O)Nc4ccc(F)c(Cl)c4)CC3C2)n1` (stereo not drawn) [Example 179], the concentration for a half-maximal effect (EC50) under setting [1] was < 10 nM. Still for that read-out and setting: with `Cc1cc(C2(O)CC3CC(c4nn(C)c(N)c4C(=O)Nc4ccc(F)c(Cl)c4)CC3C2)on1` (stereo not drawn) [Example 180] the figure was < 10 nM; with `Cn1nc(C2CC3CC(O)(Cc4ncco4)CC3C2)c(C(=O)Nc2ccc(F)c(Cl)c2)c1N` (stereo not drawn) [Example 181], < 10 nM. On the same count and under the same terms, with `Cn1nc(C2CC3CC(N)(CS(C)(=O)=O)CC3C2)c(C(=O)Nc2ccc(F)c(Cl)c2)c1N` (stereo not drawn) [Example 182] the figure was > 500 nM. Same read-out and setting: next, `Cc1coc(C2(O)CC3CC(c4nn(C)c(N)c4C(=O)Nc4ccc(F)c(Cl)c4)CC3C2)n1` (stereo not drawn) [Example 183]: < 10 nM; `Cc1cnc(C2(O)CC3CC(c4nn(C)c(N)c4C(=O)Nc4ccc(F)c(Cl)c4)CC3C2)o1` (stereo not drawn) [Example 184]: < 10 nM. For the compound `Cn1nc(C2CC3CC(N4CCC(F)(C(N)=O)CC4)CC3C2)c(C(=O)Nc2ccc(F)c(Cl)c2)c1N` (stereo not drawn) [Example 185], the EC50 under setting [1] was 10 to 50 nM. On the same count and under the same terms, with `COC(=O)C1=CCN(C2CC3CC(c4nn(C)c(N)c4C(=O)Nc4ccc(F)c(Cl)c4)CC3C2)CC1` (stereo not drawn) [Example 186] the figure was 50 to 500 nM; with `Cn1nc(C2CC3CC(N4CCC(C(N)=O)CC4)CC3C2)c(C(=O)Nc2ccc(F)c(Cl)c2)c1N` (stereo not drawn) [Example 187], 50 to 500 nM. Still for that read-out and setting: next, `Cn1nc(C2CC3CC(N4CC=C(C(=O)O)CC4)CC3C2)c(C(=O)Nc2ccc(F)c(Cl)c2)c1N` (stereo not drawn) [Example 188]: > 500 nM; `Cn1nc(C2CC3CC(N4CC=C(C(N)=O)CC4)CC3C2)c(C(=O)Nc2ccc(F)c(Cl)c2)c1N` (stereo not drawn) [Example 189]: 10 to 50 nM; `Cn1nc(C2CC3CC(O)(c4cccnn4)CC3C2)c(C(=O)Nc2ccc(F)c(Cl)c2)c1N` (stereo not drawn) [Example 190]: < 10 nM. The same measure, in the same setting: with `Cn1nc(C2CC3CC(O)(c4cnccn4)CC3C2)c(C(=O)Nc2ccc(F)c(Cl)c2)c1N` (stereo not drawn) [Example 191] the figure was < 10 nM. `CSc1nccc(C2(O)CC3CC(c4nn(C)c(N)c4C(=O)Nc4ccc(F)c(Cl)c4)CC3C2)n1` (stereo not drawn) [Example 192]: under setting [1], the 50% effective concentration (EC50) was 10 to 50 nM. On to `Cn1ncnc1C1(O)CC2CC(c3nn(C)c(N)c3C(=O)Nc3ccc(F)c(Cl)c3)CC2C1` (stereo not drawn) [Example 193], for which, under setting [1], the EC50 was < 10 nM. Regarding `Cn1nc(Br)c(C2(O)CC3CC(c4nn(C)c(N)c4C(=O)Nc4ccc(F)c(Cl)c4)CC3C2)n1` (stereo not drawn) [Example 194], the EC50 under setting [1] is < 10 nM. For `Cn1ncc(C2(O)CC3CC(c4nn(C)c(N)c4C(=O)Nc4ccc(F)c(Cl)c4)CC3C2)n1` (stereo not drawn) [Example 195], the EC50 under setting [1] is < 10 nM. Same read-out and setting: next, `CCn1nccc1C1(O)CC2CC(c3nn(C)c(N)c3C(=O)Nc3ccc(F)c(Cl)c3)CC2C1` (stereo not drawn) [Example 196]: < 10 nM. Turning to `Cn1nc(C2CC3C=C(c4ccn[nH]4)CC3C2)c(C(=O)Nc2ccc(F)c(Cl)c2)c1N` (stereo not drawn) [Example 197], under setting [1], the EC50 is < 10 nM. On the same count and under the same terms, with `C=C(n1cccn1)C1(O)CC2CC(c3nn(C)c(N)c3C(=O)Nc3ccc(F)c(Cl)c3)CC2C1` (stereo not drawn) [Example 198] the figure was < 10 nM; with `CC(n1cccn1)C1(O)CC2CC(c3nn(C)c(N)c3C(=O)Nc3ccc(F)c(Cl)c3)CC2C1` (stereo not drawn) [Example 199], < 10 nM; with `CC(C)n1nccc1C1(O)CC2CC(c3nn(C)c(N)c3C(=O)Nc3ccc(F)c(Cl)c3)CC2C1` (stereo not drawn) [Example 200], < 10 nM.

With `Cn1nc(C2CC3CC(O)(CNc4ncc(F)cn4)CC3C2)c(C(=O)Nc2ccc(F)c(Cl)c2)c1N` (stereo not drawn) [Example 201], under setting [1], the concentration for a half-maximal effect (EC50) is < 10 nM.

Consider `CC(C)n1nc([N+](=O)[O-])cc1C1(O)CC2CC(c3nn(C)c(N)c3C(=O)Nc3ccc(F)c(Cl)c3)CC2C1` (stereo not drawn) [Example 206], for which the EC50 under setting [1] was < 10 nM. For `Cn1nc(C(F)(F)F)c(C2(O)CC3CC(c4nn(C)c(N)c4C(=O)Nc4ccc(F)c(Cl)c4)CC3C2)n1` (stereo not drawn) [Example 207], the EC50 under setting [1] is < 10 nM. With `Cn1nc(C2CC3CC(O)(c4c(Cl)cnn4C)CC3C2)c(C(=O)Nc2ccc(F)c(Cl)c2)c1N` (stereo not drawn) [Example 208], the concentration for a half-maximal effect (EC50) under setting [1] was < 10 nM.

For `Cn1nc(C2CC3CC(O)(c4c(F)cnn4C)CC3C2)c(C(=O)Nc2ccc(F)c(Cl)c2)c1N` (stereo not drawn) [Example 209], under setting [1], the EC50 is < 10 nM. Consider `CCn1nc(N)cc1C1(O)CC2CC(c3nn(C)c(N)c3C(=O)Nc3ccc(F)c(Cl)c3)CC2C1` (stereo not drawn) [Example 210], for which the EC50 under setting [1] was < 10 nM.

For `CC(C)n1nc(N)cc1C1(O)CC2CC(c3nn(C)c(N)c3C(=O)Nc3ccc(F)c(Cl)c3)CC2C1` (stereo not drawn) [Example 211], the EC50 under setting [1] was < 10 nM. Take `Cn1nc(C2CC3CC(O)(c4n[nH]cc4C(F)(F)F)CC3C2)c(C(=O)Nc2ccc(F)c(Cl)c2)c1N` (stereo not drawn) [Example 212]: the concentration for a half-maximal effect (EC50) under setting [1] was < 10 nM.

Consider `Cn1nc(C2CC3CC(O)(CNc4ncc(F)cn4)CC3C2)c(C(=O)Nc2ccc(F)c(Cl)c2)c1N` (stereo not drawn) [Example 213], for which the EC50 was 10 to 50 nM.

Take `CCn1nc(N)cc1C1=CC2CC(c3nn(C)c(N)c3C(=O)Nc3ccc(F)c(Cl)c3)CC2C1` (stereo not drawn) [Example 214]: the EC50 under setting [1] was < 10 nM. For the compound `Cn1nc(C2CC3CC(O)(c4cc(N)nn4C4CC4)CC3C2)c(C(=O)Nc2ccc(F)c(Cl)c2)c1N` (stereo not drawn) [Example 215], the concentration giving a half-maximal response (EC50) under setting [1] was < 10 nM. Turning to `Cn1nc(C2CC3C=C(c4cc(N)nn4C4CC4)CC3C2)c(C(=O)Nc2ccc(F)c(Cl)c2)c1N` (stereo not drawn) [Example 216], the concentration for a half-maximal effect (EC50) under setting [1] lay within 10 to 50 nM. As to `Cc1cc(C2(O)CC3CC(c4nn(C)c(N)c4C(=O)Nc4ccc(F)c(Cl)c4)CC3C2)n(C)n1` (stereo not drawn) [Example 217], the concentration for a half-maximal effect (EC50) under setting [1] is < 10 nM. As to `Cn1nc(C2CC3CC(O)(c4cc([N+](=O)[O-])nn4C4CC4)CC3C2)c(C(=O)Nc2ccc(F)c(Cl)c2)c1N` (stereo not drawn) [Example 218], the EC50 under setting [1] is < 10 nM. On the same count and under the same terms, next, `Cn1cc(C(F)(F)F)c(C2(O)CC3CC(c4nn(C)c(N)c4C(=O)Nc4ccc(F)c(Cl)c4)CC3C2)n1` (stereo not drawn) [Example 219]: < 10 nM; `Cn1cc(C2(O)CC3CC(c4nn(C)c(N)c4C(=O)Nc4ccc(F)c(Cl)c4)CC3C2)c(C(F)(F)F)n1` (stereo not drawn) [Example 220]: < 10 nM; `Cn1nc(C2CC3CC(O)(c4c(Cl)c(N)nn4C)CC3C2)c(C(=O)Nc2ccc(F)c(Cl)c2)c1N` (stereo not drawn) [Example 221]: < 10 nM. Same read-out and setting: next, `Cn1nc(C2CC3CC(O)(c4c[nH]nc4C(F)(F)F)CC3C2)c(C(=O)Nc2ccc(F)c(C#N)c2)c1N` (stereo not drawn) [Example 222]: < 10 nM; `Cn1nc(C2CC3CC(O)(c4cc(C(F)(F)F)n[nH]4)CC3C2)c(C(=O)Nc2ccc(F)c(Cl)c2)c1N` (stereo not drawn) [Example 223]: < 10 nM.

`Cn1nc(C2CC3CC(O)(c4[nH]nc(C(F)(F)F)c4Br)CC3C2)c(C(=O)Nc2ccc(F)c(Cl)c2)c1N` (stereo not drawn) [Example 224]: the EC50 under setting [1] lay within 10 to 50 nM.

For the compound `COC(=O)CCC(=O)OCn1cc(C2(O)CC3CC(c4nn(C)c(N)c4C(=O)Nc4ccc(F)c(Cl)c4)CC3C2)c(C(F)(F)F)n1` (stereo not drawn) [Example 226], the EC50 under setting [1] is < 10 nM. Consider `COCCOCCOCCOCCOCCOCCOC(=O)OCn1cc(C2(O)CC3CC(c4nn(C)c(N)c4C(=O)Nc4ccc(F)c(Cl)c4)CC3C2)c(C(F)(F)F)n1` (stereo not drawn) [Example 228], for which the 50% effective concentration (EC50) under setting [1] was < 10 nM. Regarding `COCCOCCOCCOCCOCCOCCOCCOC(=O)OCn1cc(C2(O)CC3CC(c4nn(C)c(N)c4C(=O)Nc4ccc(F)c(Cl)c4)CC3C2)c(C(F)(F)F)n1` (stereo not drawn) [Example 229], the EC50 under setting [1] was < 10 nM.

Consider `Cn1nc(C2CC3CC(O)(c4cn(COC(=O)CCC(=O)OCc5ccccc5)nc4C(F)(F)F)CC3C2)c(C(=O)Nc2ccc(F)c(Cl)c2)c1N` (stereo not drawn) [Example 230], for which the EC50 under setting [1] is < 10 nM.

The EC50 is the midpoint of the concentration-response curve.
